Assay results from patent US20090163586A1, “Bis-(Sulfonylamino) Derivatives in Therapy 205” (AstraZeneca AB, priority 2007, published 2009).

Biological target: T1, human mPGES-1 (Homo sapiens, UniProt O14684)
T1 sequence (O14684 1-152): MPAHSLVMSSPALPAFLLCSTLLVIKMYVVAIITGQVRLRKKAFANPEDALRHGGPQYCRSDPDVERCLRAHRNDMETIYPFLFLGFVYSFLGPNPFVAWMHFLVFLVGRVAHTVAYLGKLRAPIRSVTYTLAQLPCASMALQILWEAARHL
Assay: Microsomal prostaglandin E synthase biochemical assay
Details: microsome preparation containing human mPGES-1; PGH2 10.8 μM, GSH 2.5 mM, pH 6.8; PGE2 by HTRF; average of at least n=2
Procedure: Compounds were tested as inhibitors of microsomal prostaglandin E synthase activity in microsomal prostaglandin E synthase assays and whole cell assays. These assays measure prostaglandin E2 (PGE2) synthesis which is taken as a measure of prostaglandin E synthase activity. Microsomal prostaglandin E synthase biochemical assays used microsomal prostaglandin E synthase-1 in microsomal preparations. The source of the microsomes can be for example interleukin-1β-stimulated human A549 cells (which express human mPGES-1) or Sf9 cells transfected with plasmids encoding human mPGES-1 cDNA. The whole blood assay [described by Patrignani, P. et al., Journal of Pharmacology and Experimental Therapeutics, 1994, vol. 271, pp 1705-1712] was used as the whole cell assay for testing the compounds. Whole blood provides a protein and cell rich milieu for the study of biochemical efficacy of anti-inflammatory compounds such as prostaglandin synthase inhibitors. To study the inhibitory activities of these compounds, human blood was stimulated with lipopolysaccharide (LPS) for typically 16 hours to induce mPGES-1 expression, after which the concentration of produced PGE2 was measured by competitive-immuno assay (homogeneous time-resolved fluorescence, HTRF) as read out for effectiveness against mPGES-1-dependent PGE2 production.
Microsomal Prostaglandin E Synthase Biochemical Assay
A solution of test compound was added to a diluted microsome preparation containing human mPGES-1 and pre-incubated for 15 minutes in potassium phosphate buffer pH 6.8 with cofactor glutathione (GSH). Corresponding solutions without test compound were used as positive controls, and corresponding solutions without test compound and without microsomes were used as negative controls. The enzymatic reaction was then started by addition of the substrate PGH2 in an organic solution (dry acetonitrile).
The typical reaction conditions of the enzymatic reaction were thus: Test compound: ranging from 60 μM to 0.002 μM, or zero in positive and negative controls; potassium phosphate buffer pH 6.8: 50 mM; GSH: 2.5 mM; mPGES-1-containing microsomes: 2 μg/mL (sample and positive controls) or 0 μg/mL (negative control); PGH2: 10.8 μM; Acetonitrile: 7.7% (v/v); DMSO: 0.6% (v/v). The reaction was stopped after one minute by adding an acidic solution (pH 1.9) of ferric chloride and citrate (final concentrations 7 mM and 47 mM respectively), by which the PGH2 was sequestered (the PGH2 is reduced to mainly 12-hydroxy heptadecatrineoic acid (12-HHT) which is not detected by the subsequent PGE2 detection step). The resulting solution was then pH neutralized by addition of potassium phosphate buffer, prior to diluting an aliquot of the resulting solution in a weak potassium phosphate buffer (50 mM, pH 6.8) containing 0.2% BSA (w/v). [Adapted from Jacobsson et al., Proc. Natl. Acad. Sci. USA, 1999, vol. 96, pp. 7220-7225]The PGE2 formed was quantified by use of a commercial HTRF based kit (catalogue #62PG2PEC or #62P2APEC from Cisbio International). 100% activity was defined as the PGE2 production in positive controls subtracted by the PGE2 production in the negative controls. IC50 values were then determined using standard procedures.
The potency is expressed as IC50 and the value indicated is an average of at least n=2.

| IC50 [nM] | Structure (SMILES) |
| --- | --- |
| 130 | NS(=O)(=O)c1ccccc1NS(=O)(=O)CCc1ccc(-c2cc3ccccc3o2)cc1 [Example 1, 2-[2-(4-Benzofuran-2-ylphenyl)ethylsulfonylamino]benzenesulfonamide] |
| 270 | NS(=O)(=O)c1ccccc1NS(=O)(=O)CCc1ccc(C2Cc3ccccc3O2)cc1 (stereo not drawn) [Example 2, 2-[2-[4-(2,3-Dihydrobenzofuran-2-yl)phenyl]ethylsulfonylamino]benzenesulfonamide] |
| 140 | NS(=O)(=O)c1ccccc1NS(=O)(=O)/C=C/c1ccc(-c2cc3ccccc3o2)cc1 [Example 3, 2-[[(E)-2-(4-Benzofuran-2-ylphenyl)ethenyl]sulfonylamino]benzenesulfonamide] |
| 79 | NS(=O)(=O)c1cc(F)ccc1NS(=O)(=O)/C=C/c1ccc(-c2cc3ccccc3o2)cc1 [Example 4, 2-[[(E)-2-(4-Benzofuran-2-ylphenyl)ethenyl]sulfonylamino]-5-fluoro-benzenesulfonamide] |
| 40 | NS(=O)(=O)c1ccc(F)cc1NS(=O)(=O)/C=C/c1ccc(-c2cc3ccccc3o2)cc1 [Example 5, 2-[[(E)-2-(4-Benzofuran-2-ylphenyl)ethenyl]sulfonylamino]-4-fluoro-benzenesulfonamide] |
| 74 | NS(=O)(=O)c1c(F)cccc1NS(=O)(=O)/C=C/c1ccc(-c2cc3ccccc3o2)cc1 [Example 6, 2-[[(E)-2-(4-Benzofuran-2-ylphenyl)ethenyl]sulfonylamino]-6-fluoro-benzenesulfonamide] |
| 280 | CC(Cc1ccc(Cl)cc1)S(=O)(=O)Nc1ccccc1S(N)(=O)=O (stereo not drawn) [Example 7, 2-[1-(4-Chlorophenyl)propan-2-ylsulfonylamino]benzenesulfonamide] |
| 2200 | CC(Cc1ccccc1)S(=O)(=O)Nc1ccccc1S(N)(=O)=O (stereo not drawn) [Example 8, 2-(1-Phenylpropan-2-ylsulfonylamino)benzenesulfonamide] |
| 610 | C/C(=C\c1ccc(Cl)cc1)S(=O)(=O)Nc1ccccc1S(N)(=O)=O [Example 9, 2-[[(E)-1-(4-Chlorophenyl)prop-1-en-2-yl]sulfonylamino]benzenesulfonamide] |
| 450 | CC(Cc1ccc(Cl)cc1)S(=O)(=O)Nc1cc(F)ccc1S(N)(=O)=O (stereo not drawn) [Example 10, 2-[1-(4-Chlorophenyl)propan-2-ylsulfonylamino]-4-fluoro-benzenesulfonamide] |
| 590 | C/C(=C\c1ccc(Cl)cc1)S(=O)(=O)Nc1cc(F)ccc1S(N)(=O)=O [Example 11, 2-[[(E)-1-(4-chlorophenyl)prop-1-en-2-yl]sulfonylamino]-4-fluoro-benzenesulfonamide] |
| 1000 | C/C(=C\c1ccc(Cl)cc1)S(=O)(=O)Nc1ccc(F)cc1S(N)(=O)=O [Example 12, 2-[[(E)-1-(4-Chlorophenyl)prop-1-en-2-yl]sulfonylamino]-5-fluoro-benzenesulfonamide] |
| 520 | C/C(=C\c1ccc(Cl)cc1)S(=O)(=O)Nc1cccc(F)c1S(N)(=O)=O [Example 13, 2-[[(E)-1-(4-Chlorophenyl)prop-1-en-2-yl]sulfonylamino]-6-fluoro-benzenesulfonamide] |
| 3100 | C/C(=C\c1ccc(Cl)cc1)S(=O)(=O)Nc1c(F)cccc1S(N)(=O)=O [Example 14, 2-[[(E)-1-(4-Chlorophenyl)prop-1-en-2-yl]sulfonylamino]-3-fluoro-benzenesulfonamide] |
| 7600 | C/C(=C\c1ccc(Cl)cc1)S(=O)(=O)Nc1ccc(C)cc1S(N)(=O)=O [Example 15, 2-[[(E)-1-(4-Chlorophenyl)prop-1-en-2-yl]sulfonylamino]-5-methyl-benzenesulfonamide] |
| 190 | NS(=O)(=O)c1ccccc1NS(=O)(=O)CCc1ccc(-c2ccco2)cc1 [Example 16, 2-[2-[4-(2-Furyl)phenyl]ethylsulfonylamino]benzenesulfonamide] |
| 5300 | NS(=O)(=O)c1ccccc1NS(=O)(=O)CCc1ccc(C2CCCO2)cc1 (stereo not drawn) [Example 17, 2-[2-[4-(Oxolan-2-yl)phenyl]ethylsulfonylamino]benzenesulfonamide] |

| IC50 [nM] | Structure (SMILES) |
| --- | --- |
| 44 | NS(=O)(=O)c1ccccc1NS(=O)(=O)/C=C/c1ccc(-c2ccco2)cc1 [Example 18, 2-[[(E)-2-[4-(2-Furyl)phenyl]ethenyl]sulfonylamino]benzenesulfonamide] |
| 1400 | NS(=O)(=O)c1ccccc1NS(=O)(=O)CCc1ccc(OC(F)F)cc1 [Example 19, 2-[2-[4-(Difluoromethoxy)phenyl]ethylsulfonylamino]benzenesulfonamide] |
| 700 | NS(=O)(=O)c1ccccc1NS(=O)(=O)/C=C/c1ccc(OC(F)F)cc1 [Example 20, 2-[[(E)-2-[4-(Difluoromethoxy)phenyl]ethenyl]sulfonylamino]benzenesulfonamide] |
| 320 | NS(=O)(=O)c1cc(F)ccc1NS(=O)(=O)CCc1ccc(Cl)cc1 [Example 21, 2-[2-(4-Chlorophenyl)ethylsulfonylamino]-5-fluoro-benzenesulfonamide] |
| 430 | NS(=O)(=O)c1cc(F)ccc1NS(=O)(=O)/C=C/c1ccc(Cl)cc1 [Example 22, 2-[[(E)-2-(4-Chlorophenyl)ethenyl]sulfonylamino]-5-fluoro-benzenesulfonamide] |
| 270 | NS(=O)(=O)c1ccc(F)cc1NS(=O)(=O)/C=C/c1ccc(Cl)c(Cl)c1 [Example 23, 2-[[(E)-2-(3,4-Dichlorophenyl)ethenyl]sulfonylamino]-4-fluoro-benzenesulfonamide] |
| 300 | NS(=O)(=O)c1cc(F)ccc1NS(=O)(=O)/C=C/c1ccc(Cl)c(Cl)c1 [Example 24, 2-[[(E)-2-(3,4-Dichlorophenyl)ethenyl]sulfonylamino]-5-fluoro-benzenesulfonamide] |
| 77 | NS(=O)(=O)c1c(F)cccc1NS(=O)(=O)/C=C/c1ccc(Cl)c(Cl)c1 [Example 25, 2-[[(E)-2-(3,4-Dichlorophenyl)ethenyl]sulfonylamino]-6-fluoro-benzenesulfonamide] |
| 420 | COc1ccc(Br)cc1/C=C/S(=O)(=O)Nc1cc(F)ccc1S(N)(=O)=O [Example 26, 2-[[(E)-2-(5-Bromo-2-methoxy-phenyl)ethenyl]sulfonylamino]-4-fluoro-benzenesulfonamide] |
| 270 | COc1ccc(Br)cc1/C=C/S(=O)(=O)Nc1ccc(F)cc1S(N)(=O)=O [Example 27, 2-[[(E)-2-(5-Bromo-2-methoxy-phenyl)ethenyl]sulfonylamino]-5-fluoro-benzenesulfonamide] |
| 290 | COc1ccc(Br)cc1/C=C/S(=O)(=O)Nc1cccc(F)c1S(N)(=O)=O [Example 28, 2-[[(E)-2-(5-Bromo-2-methoxy-phenyl)ethenyl]sulfonylamino]-6-fluoro-benzenesulfonamide] |
| 280 | COc1ccc(Br)cc1/C=C/S(=O)(=O)Nc1ccccc1S(N)(=O)=O [Example 29, 2-[[(E)-2-(5-Bromo-2-methoxy-phenyl)ethenyl]sulfonylamino]benzenesulfonamide] |
| 5900 | N#Cc1ccc(/C=C/S(=O)(=O)Nc2cc(F)ccc2S(N)(=O)=O)cc1 [Example 30, 2-[[(E)-2-(4-Cyanophenyl)ethenyl]sulfonylamino]-4-fluoro-benzenesulfonamide] |
| 5700 | N#Cc1ccc(/C=C/S(=O)(=O)Nc2ccc(F)cc2S(N)(=O)=O)cc1 [Example 31, 2-[[(E)-2-(4-Cyanophenyl)ethenyl]sulfonylamino]-5-fluoro-benzenesulfonamide] |
| 5100 | N#Cc1ccc(/C=C/S(=O)(=O)Nc2cccc(F)c2S(N)(=O)=O)cc1 [Example 32, 2-[[(E)-2-(4-Cyanophenyl)ethenyl]sulfonylamino]-6-fluoro-benzenesulfonamide] |
| 1100 | N#Cc1ccc(/C=C/S(=O)(=O)Nc2ccccc2S(N)(=O)=O)cc1 [Example 33, 2-[[(E)-2-(4-Cyanophenyl)ethenyl]sulfonylamino]benzenesulfonamide] |
